ChEMBL document CHEMBL5038625, “Application of the dual-tail approach for the design and synthesis of novel Thiopyrimidine-Benzenesulfonamide hybrids as selective carbonic anhydrase inhibitors” (Eur J Med Chem, 2022)

Experiments:
K562 = test: Antiproliferative activity against human K562 cells assessed as cell growth inhibition at 10 uM incubated for 24 hrs by sulforhodamine B assay; format: functional; settings: read-out: GI
NCI/ADR-RES = test: Antiproliferative activity against human NCI-ADR-RES cells assessed as cell growth inhibition at 10 uM incubated for 24 hrs by sulforhodamine B assay; format: functional; settings: read-out: GI
OVCAR-8 = test: Antiproliferative activity against human OVCAR-8 cells assessed as cell growth inhibition at 10 uM incubated for 24 hrs by sulforhodamine B assay; format: functional; settings: read-out: GI
OVCAR-4 = test: Antiproliferative activity against human OVCAR-4 cells assessed as cell growth inhibition at 10 uM incubated for 24 hrs by sulforhodamine B assay; format: functional; settings: read-out: GI
SF-295 = test: Antiproliferative activity against human SF-295 cells assessed as cell growth inhibition at 10 uM incubated for 24 hrs by sulforhodamine B assay; format: functional; settings: read-out: GI
RPMI-8226 = test: Antiproliferative activity against human RPMI-8226 cells assessed as cell growth inhibition at 10 uM incubated for 24 hrs by sulforhodamine B assay; format: functional; settings: read-out: GI
A549 = test: Antiproliferative activity against human A549 cells assessed as cell growth inhibition at 10 uM incubated for 24 hrs by sulforhodamine B assay; format: functional; settings: read-out: GI
U-251 = test: Antiproliferative activity against human U-251 cells assessed as cell growth inhibition at 10 uM incubated for 24 hrs by sulforhodamine B assay; format: functional; settings: read-out: GI
SK-MEL-5 = test: Antiproliferative activity against human SK-MEL-5 cells assessed as cell growth inhibition at 10 uM incubated for 24 hrs by sulforhodamine B assay; format: functional; settings: read-out: GI
NCI-H226 = test: Antiproliferative activity against human NCI-H226 cells assessed as cell growth inhibition at 10 uM incubated for 24 hrs by sulforhodamine B assay; format: functional; settings: read-out: GI
EKVX = test: Antiproliferative activity against human EKVX cells assessed as cell growth inhibition at 10 uM incubated for 24 hrs by sulforhodamine B assay; format: functional; settings: read-out: GI
PC-3 = test: Antiproliferative activity against human PC-3 cells assessed as cell growth inhibition at 10 uM incubated for 24 hrs by sulforhodamine B assay; format: functional; settings: read-out: GI
HOP-92 = test: Antiproliferative activity against human HOP-92 cells assessed as cell growth inhibition at 10 uM incubated for 24 hrs by sulforhodamine B assay; format: functional; settings: read-out: GI
SR = test: Antiproliferative activity against human SR cells assessed as cell growth inhibition at 10 uM incubated for 24 hrs by sulforhodamine B assay; format: functional; settings: read-out: GI
A498 = test: Antiproliferative activity against human A498 cells assessed as cell growth inhibition at 10 uM incubated for 24 hrs by sulforhodamine B assay; format: functional; settings: read-out: GI
RXF 393 = test: Antiproliferative activity against human RXF 393 cells assessed as cell growth inhibition at 10 uM incubated for 24 hrs by sulforhodamine B assay; format: functional; settings: read-out: GI
HCT-15 = test: Antiproliferative activity against human HCT-15 cells assessed as cell growth inhibition at 10 uM incubated for 24 hrs by sulforhodamine B assay; format: functional; settings: read-out: GI
HL-60 = test: Antiproliferative activity against human HL-60 cells assessed as cell growth inhibition at 10 uM incubated for 24 hrs by sulforhodamine B assay; format: functional; settings: read-out: GI
MDA-MB-231 = test: Antiproliferative activity against human MDA-MB-231 cells assessed as cell growth inhibition at 10 uM incubated for 24 hrs by sulforhodamine B assay; format: functional; settings: read-out: GI
HCT-116 = test: Antiproliferative activity against human HCT-116 cells assessed as cell growth inhibition at 10 uM incubated for 24 hrs by sulforhodamine B assay; format: functional; settings: read-out: GI
T47D = test: Antiproliferative activity against human T47D cells assessed as cell growth inhibition at 10 uM incubated for 24 hrs by sulforhodamine B assay; format: functional; settings: read-out: GI
MCF7 = test: Antiproliferative activity against human MCF7 cells assessed as cell growth inhibition at 10 uM incubated for 24 hrs by sulforhodamine B assay; format: functional; settings: read-out: GI
CCRF-CEM = test: Antiproliferative activity against human CCRF-CEM cells assessed as cell growth inhibition at 10 uM incubated for 24 hrs by sulforhodamine B assay; format: functional; settings: read-out: GI
UO-31 = test: Antiproliferative activity against human UO-31 cells assessed as cell growth inhibition at 10 uM incubated for 24 hrs by sulforhodamine B assay; format: functional; settings: read-out: GI
MOLT-4 = test: Antiproliferative activity against human MOLT-4 cells assessed as cell growth inhibition at 10 uM incubated for 24 hrs by sulforhodamine B assay; format: functional; settings: read-out: GI
SN12C = test: Antiproliferative activity against human SN12C cells assessed as cell growth inhibition at 10 uM incubated for 24 hrs by sulforhodamine B assay; format: functional; settings: read-out: GI
Carbonic anhydrase 9 = Carbonic anhydrase 9 (Homo sapiens, UniProt Q16790); test: Inhibition of human CA9 preincubated for 15 mins by phenol red dye based stopped flow CO2 hydration assay
CAKI-1 = test: Antiproliferative activity against human CAKI-1 cells assessed as cell growth inhibition at 10 uM incubated for 24 hrs by sulforhodamine B assay; format: functional; settings: read-out: GI
SF-539 = test: Antiproliferative activity against human SF-539 cells assessed as cell growth inhibition at 10 uM incubated for 24 hrs by sulforhodamine B assay; format: functional; settings: read-out: GI
Hs-578T = test: Antiproliferative activity against human HS-578T cells assessed as cell growth inhibition at 10 uM incubated for 24 hrs by sulforhodamine B assay; format: functional; settings: read-out: GI
SF-268 = test: Antiproliferative activity against human SF-268 cells assessed as cell growth inhibition at 10 uM incubated for 24 hrs by sulforhodamine B assay; format: functional; settings: read-out: GI
786-0 = test: Antiproliferative activity against human 786-0 cells assessed as cell growth inhibition at 10 uM incubated for 24 hrs by sulforhodamine B assay; format: functional; settings: read-out: GI
ACHN = test: Antiproliferative activity against human ACHN cells assessed as cell growth inhibition at 10 uM incubated for 24 hrs by sulforhodamine B assay; format: functional; settings: read-out: GI
KM12 = test: Antiproliferative activity against human KM12 cells assessed as cell growth inhibition at 10 uM incubated for 24 hrs by sulforhodamine B assay; format: functional; settings: read-out: GI
MDA-MB-468 = test: Antiproliferative activity against human MDA-MB-468 cells assessed as cell growth inhibition at 10 uM incubated for 24 hrs by sulforhodamine B assay; format: functional; settings: read-out: GI
LOX IMVI = test: Antiproliferative activity against human LOX IMVI cells assessed as cell growth inhibition at 10 uM incubated for 24 hrs by sulforhodamine B assay; format: functional; settings: read-out: GI

Structure (SMILES) | inhibition of growth at 10 µM (K562) | inhibition of growth at 10 µM (OVCAR-4) | inhibition of growth at 10 µM (RPMI-8226) | inhibition of growth at 10 µM (U-251) | inhibition of growth at 10 µM (EKVX) | inhibition of growth at 10 µM (PC-3) | inhibition of growth at 10 µM (SR) | inhibition of growth at 10 µM (A498) | inhibition of growth at 10 µM (RXF 393) | inhibition of growth at 10 µM (HCT-15) | inhibition of growth at 10 µM (MDA-MB-231) | inhibition of growth at 10 µM (T47D) | inhibition of growth at 10 µM (MCF7) | inhibition of growth at 10 µM (UO-31) | inhibition of growth at 10 µM (MOLT-4) | Ki (Carbonic anhydrase 9) | inhibition of growth at 10 µM (CAKI-1) | inhibition of growth at 10 µM (SF-539) | also measured
CC(C)c1nc(SCC(=O)c2ccccc2)nc(Nc2cccc(S(N)(=O)=O)c2)c1C#N | 26.7% | 9.85% | 17.9% | 5.45% | 5.72% | 27.3% | 19% | 10.7% | 17.3% | 12.1% | 14.9% | 17.9% | 12.6% | 27.4% | 28.2% | 92.3 nM | 10.8% | 12.2% | inhibition of growth at 10 µM (NCI/ADR-RES): 5.69%; inhibition of growth at 10 µM (OVCAR-8): 5%; inhibition of growth at 10 µM (SF-295): 5.43%; inhibition of growth at 10 µM (A549): 5.5%; inhibition of growth at 10 µM (SK-MEL-5): 7.01%; inhibition of growth at 10 µM (NCI-H226): 10%; inhibition of growth at 10 µM (HOP-92): 61%; inhibition of growth at 10 µM (HL-60): 25.2%; inhibition of growth at 10 µM (HCT-116): 5.73%; inhibition of growth at 10 µM (CCRF-CEM): 13.8%; inhibition of growth at 10 µM (SN12C): 8.21%
COc1ccc(C(=O)CSc2nc(Nc3cccc(S(N)(=O)=O)c3)c(C#N)c(-c3cc(OC)ccc3OC)n2)cc1 | 10.7% | 7.16% | 12.6% | 9.1% | 6.35% | 8.57% | 12.7% | 23.9% | 11.7% | 10.6% | 5.72% | 15.2% | 11.8% | 29.2% | 18.2% | 7 nM | 29.2% | 11.2% | inhibition of growth at 10 µM (Hs-578T): 10.4%; inhibition of growth at 10 µM (SF-268): 5.3%; inhibition of growth at 10 µM (786-0): 7.02%; inhibition of growth at 10 µM (ACHN): 5.69%; inhibition of growth at 10 µM (KM12): 5.79%; inhibition of growth at 10 µM (MDA-MB-468): 8.93%; inhibition of growth at 10 µM (LOX IMVI): 11.3%
